This experiment concerns the target T1, recombinant Plk1 protein (Homo sapiens, UniProt P53350).
T1 construct: histidine tag (N); made in house; host or cells: SF9 insect cells
In words: Plk1 kinase activity inhibition assay (33P-ATP, alpha casein substrate, flash plates). The settings on record: enzymatic assay, 100 nM Li-ATP, 80 minutes at 30° C. It counts as biochemical. The method, then:
The inhibition of Plk1 kinase activity can be measured using recombinant Plk1 protein expressed as an N-terminally histidine-tagged protein in SF9 insect cells and alpha casein as substrate. The Plk1 assay is run in 96 well plates by incubating 50 to 100 ng per well recombinant Plk1, 500 ng per well alpha casein (Sigma, # C-6780) as substrate, 10 μl of compound of invention (test compounds were dissolved as 20 mM solutions in dimethylsulfoxide (DMSO) and subsequently diluted), and 100 nM Li-ATP (including ^33P-ATP) in 100 μl of reaction buffer ([…] HEPES, pH 7.5; 3 mM MgCl2; 3 mM MnCl2; 3 μM Na-Orthovanadat; 1 mM DTT; 1 μg/ml PEG 8000) for 80 minutes at 30° C. The reactions are terminated by adding 100 μl stopping buffer (2% H3PO4 for 5 minutes) and are washed 3 times with washing solution (0.9% NaCl). Determining ^33P incorporated into the protein substrate alpha casein, the detection is based on the adhesion of the phosphorylated protein to the surface of scintillator-coated flash plates (Perkin Elmer, USA; #SMP-200). Phosphorylation of alpha casein is measured by counting the radioactivity bound to the plate for 60 sec. using a plate reader (Perkin Elmer, USA; Wallac Microbeta). By this method, the IC50 value of the Plk1 inhibition is determined as described above.
T1 sequence (P53350 whole entry): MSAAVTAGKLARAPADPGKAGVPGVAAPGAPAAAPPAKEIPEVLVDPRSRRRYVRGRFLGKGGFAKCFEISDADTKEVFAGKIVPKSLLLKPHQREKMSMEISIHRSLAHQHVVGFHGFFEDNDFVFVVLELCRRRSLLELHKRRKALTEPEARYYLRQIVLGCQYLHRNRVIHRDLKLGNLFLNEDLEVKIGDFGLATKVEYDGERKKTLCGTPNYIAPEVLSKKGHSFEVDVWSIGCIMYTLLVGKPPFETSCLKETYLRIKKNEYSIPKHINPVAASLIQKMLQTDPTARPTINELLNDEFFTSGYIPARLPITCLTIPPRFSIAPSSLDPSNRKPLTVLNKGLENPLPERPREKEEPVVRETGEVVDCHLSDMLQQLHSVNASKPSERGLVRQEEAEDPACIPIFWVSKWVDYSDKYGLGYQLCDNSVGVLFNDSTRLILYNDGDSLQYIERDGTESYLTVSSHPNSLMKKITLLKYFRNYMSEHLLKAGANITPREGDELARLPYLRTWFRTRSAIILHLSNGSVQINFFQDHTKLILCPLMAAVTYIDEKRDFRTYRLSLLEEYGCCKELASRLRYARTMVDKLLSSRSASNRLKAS
One may read the IC50 as the concentration at which inhibition is half-maximal. On to `C[C@@H](Oc1cc(-n2cnc3cnc(CN4CCN(C)CC4)cc32)sc1C(N)=O)c1ccccc1Cl` [Example 100, 3-[(1R)-1-(2-chlorophenyl)ethoxy]-5-{6-[(4-methylpiperazin-1-yl)methyl]-1H-imidazo[4,5-c]pyridin-1-yl}thiophene-2-carboxamide], for which the IC50 was less than 10 nM.
Turning to `N#Cc1ccccc1COc1cc(-n2cnc3cnccc32)sc1C(N)=O` [Example 39, 3-[(2-cyanobenzyl)oxy]-5-(1H-imidazo[4,5-c]pyridin-1-yl)thiophene-2-carboxamide], the IC50 lay within 10 to 100 nM.
With `C[C@@H](Oc1cc(-n2cnc3cnc(CN4CCN(CCO)CC4)cc32)sc1C(N)=O)c1ccccc1C(F)(F)F` [Example 61, 5-(6-{[4-(2-hydroxyethyl)piperazin-1-yl]methyl}-1H-imidazo[4,5-c]pyridin-1-yl)-3-{(1R)-1-[2-(trifluoromethyl)phenyl]ethoxy}thiophene-2-carboxamide] the figure was less than 10 nM.
With `C[C@H](Oc1cc(-n2cnc3cnc(CO)cc32)sc1C(N)=O)c1ccccc1C(F)(F)F` [Example 46, 5-[6-(hydroxymethyl)-1H-imidazo[4,5-c]pyridin-1-yl]-3-{(1S)-1-[2-(trifluoromethyl)phenyl]ethoxy}thiophene-2-carboxamide], the IC50 was in the range of 100 to 1000 nM.
The value for `C[C@@H](Oc1cc(-n2cnc3cnc(CO)cc32)sc1C(N)=O)c1ccccc1Cl` [Example 54, 3-[(1R)-1-(2-chlorophenyl)ethoxy]-5-[6-(hydroxymethyl)-1H-imidazo[4,5-c]pyridin-1-yl]thiophene-2-carboxamide] was less than 10 nM; that for `C[C@@H](Oc1cc(-n2cnc3cnc(CNCCO)cc32)sc1C(N)=O)c1ccccc1C(F)(F)F` [Example 104, 5-(6-{[(2-hydroxyethyl)amino]methyl}-1H-imidazo[4,5-c]pyridin-1-yl)-3-{(1R)-1-[2-(trifluoromethyl)phenyl]ethoxy}thiophene-2-carboxamide] was 10 to 100 nM; that for `COc1ccc2c(ncn2-c2cc(OCc3ccccc3C(F)(F)F)c(C(N)=O)s2)n1` [Example 23, 5-(5-methoxy-1H-imidazo[4,5-b]pyridin-1-yl)-3-{[2-(trifluoromethyl)benzyl]oxy}thiophene-2-carboxamide] was 10 to 100 nM.
With `C[C@@H](Oc1cc(-n2cnc3cnc(CNC(C)(C)C)cc32)sc1C(N)=O)c1ccccc1C(F)(F)F` [Example 114, 5-{6-[(tert-butylamino)methyl]-1H-imidazo[4,5-c]pyridin-1-yl}-3-{(1R)-1-[2-(trifluoromethyl)phenyl]ethoxy}thiophene-2-carboxamide] the figure was 10 to 100 nM.
With `C[C@@H](Oc1cc(-n2cnc3cnc(CNCCN4CCOCC4)cc32)sc1C(N)=O)c1ccccc1C(F)(F)F` [Example 147, 5-(6-{[(2-morpholin-4-ylethyl)amino]methyl}-1H-imidazo[4,5-c]pyridin-1-yl)-3-{(1R)-1-[2-(trifluoromethyl)phenyl]ethoxy}thiophene-2-carboxamide] the figure was 10 to 100 nM; with `CCc1ccccc1COc1cc(-n2cnc3cnc(CN4CCN(C)CC4)cc32)sc1C(N)=O` [Example 153, 3-[(2-ethylbenzyl)oxy]-5-{6-[(4-methylpiperazin-1-yl)methyl]-1H-imidazo[4,5-c]pyridin-1-yl}thiophene-2-carboxamide], less than 10 nM.
`CCC(Oc1cc(-n2cnc3cnc(CN4CCN(C)CC4)cc32)sc1C(N)=O)c1ccccc1Cl` (stereo not drawn) [Example 102, 3-{[1-(2-chlorophenyl)propyl]oxy}-5-{6-[(4-methylpiperazin-1-yl)methyl]-1H-imidazo[4,5-c]pyridin-1-yl}thiophene-2-carboxamide]: the IC50 lay in the range of 10 to 100 nM.
The value for `C[C@@H](Oc1cc(-n2cnc3cnc(CN4CCN(CCCO)CC4)cc32)sc1C(N)=O)c1ccccc1C(F)(F)F` [Example 108, 5-(6-{[4-(3-hydroxypropyl)piperazin-1-yl]methyl}-1H-imidazo[4,5-c]pyridin-1-yl)-3-{(1R)-1-[2-(trifluoromethyl)phenyl]ethoxy}thiophene-2-carboxamide] was less than 10 nM.
As for `NC(=O)c1sc(-n2cnc3cnc(CO)cc32)cc1O[C@@H](CO)c1ccccc1Cl` [Example 146, 3-[(1R)-1-(2-chlorophenyl)-2-hydroxyethoxy]-5-[6-(hydroxymethyl)-1H-imidazo[4,5-c]pyridin-1-yl]thiophene-2-carboxamide], the IC50 was less than 10 nM.
Turning to `CCC(Oc1cc(-n2cnc3cnc(CN4CCCN(C)CC4)cc32)sc1C(N)=O)c1ccccc1Cl` (stereo not drawn) [Example 141, 3-{[1-(2-chlorophenyl)propyl]oxy}-5-{6-[(4-methyl-1,4-diazepan-1-yl)methyl]-1H-imidazo[4,5-c]pyridin-1-yl}thiophene-2-carboxamide], the IC50 was 10 to 100 nM.
The value for `C[C@H](Oc1cc(-n2cnc3cnc(CN4CCN(C)CC4)cc32)sc1C(N)=O)c1ccccc1C(F)(F)F` [Example 48, 5-{6-[(4-methylpiperazin-1-yl)methyl]-1H-imidazo[4,5-c]pyridin-1-yl}-3-{(1S)-1-[2-(trifluoromethyl)phenyl]ethoxy}thiophene-2-carboxamide] was 10 to 100 nM.
As to `CC(Oc1cc(-n2cnc3cnc(CO)cc32)sc1C(N)=O)c1ccccc1OC(F)F` (stereo not drawn) [Example 53], the IC50 is less than 10 nM.
With `C[C@@H](Oc1cc(-n2cnc3cnc(CN4CCN(C(N)=O)CC4)cc32)sc1C(N)=O)c1ccccc1C(F)(F)F` [Example 67, 4-{[1-(5-carbamoyl-4-{(1R)-1-[2-(trifluoromethyl)phenyl]ethoxy}-2-thienyl)-1H-imidazo[4,5-c]pyridin-6-yl]methyl}piperazine-1-carboxamide] the figure was less than 10 nM; with `CCC(Oc1cc(-n2cnc3cnc(CN4CCN(CCO)CC4)cc32)sc1C(N)=O)c1ccccc1Cl` (stereo not drawn) [Example 138, 3-{[1-(2-chlorophenyl)propyl]oxy}-5-(6-{[4-(2-hydroxyethyl)piperazin-1-yl]methyl}-1H-imidazo[4,5-c]pyridin-1-yl)thiophene-2-carboxamide], 10 to 100 nM.
Regarding `CC(Oc1cc(-n2cnc3cnc(CN4CCN(C)CC4)cc32)sc1C(N)=O)c1ccccc1C(F)(F)F` (stereo not drawn) [Example 45, 5-{6-[(4-methylpiperazin-1-yl)methyl]-1H-imidazo[4,5-c]pyridin-1-yl}-3-{-1-[2-(trifluoromethyl)phenyl]ethoxy}thiophene-2-carboxamide], the IC50 is less than 10 nM.
With `C=CCN1CCN(Cc2cc3c(cn2)ncn3-c2cc(O[C@H](C)c3ccccc3C(F)(F)F)c(C(N)=O)s2)CC1` [Example 122, 5-{6-[(4-allylpiperazin-1-yl)methyl]-1H-imidazo[4,5-c]pyridin-1-yl}-3-{(1R)-1-[2-(trifluoromethyl)phenyl]ethoxy}thiophene-2-carboxamide] the figure was less than 10 nM.
In the case of `CN1CCN(Cc2cc3c(cn2)ncn3-c2cc(OC(c3ccccc3Cl)C(F)(F)F)c(C(N)=O)s2)CC1` (stereo not drawn) [Example 76, 3-[1-(2-chlorophenyl)-2,2,2-trifluoroethoxy]-5-{6-[(4-methylpiperazin-1-yl)methyl]-1H-imidazo[4,5-c]pyridin-1-yl}thiophene-2-carboxamide], the IC50 was less than 10 nM.
With `NC(=O)c1sc(-n2cnc3ccncc32)cc1OCc1c(Cl)cccc1Cl` [Example 43, 3-[(2,6-dichlorobenzyl)oxy]-5-(3H-imidazo[4,5-c]pyridin-3-yl)thiophene-2-carboxamide] the figure was 10 to 100 nM.
The value for `CC(Oc1cc(-n2cnc3cnc(CN4CCN(C)CC4)cc32)sc1C(N)=O)c1ccccc1OC(F)F` (stereo not drawn) [Example 99, 3-{1-[2-(difluoromethoxy)phenyl]ethoxy}-5-{6-[(4-methylpiperazin-1-yl)methyl]-1H-imidazo[4,5-c]pyridin-1-yl}thiophene-2-carboxamide] was less than 10 nM; that for `CC1CCN(Cc2cc3c(cn2)ncn3-c2cc(O[C@H](C)c3ccccc3C(F)(F)F)c(C(N)=O)s2)CC1` [Example 93, 5-{6-[(4-methylpiperidin-1-yl)methyl]-1H-imidazo[4,5-c]pyridin-1-yl}-3-{(1R)-1-[2-(trifluoromethyl)phenyl]ethoxy}thiophene-2-carboxamide] was 10 to 100 nM.
With `C[C@@H](Oc1cc(-n2cnc3cnc(CNC4CCC4)cc32)sc1C(N)=O)c1ccccc1C(F)(F)F` [Example 105, 5-{6-[(cyclobutylamino)methyl]-1H-imidazo[4,5-c]pyridin-1-yl}-3-{(1R)-1-[2-(trifluoromethyl)phenyl]ethoxy}thiophene-2-carboxamide] the figure was 10 to 100 nM; with `C[C@@H](Oc1cc(-n2cnc3cnc(CO)cc32)sc1C(N)=O)c1ccccc1C(F)(F)F` [Example 25, 5-[6-(hydroxymethyl)-1H-imidazo[4,5-c]pyridin-1-yl]-3-{(1R)-1-[2-(trifluoromethyl)phenyl]ethoxy}thiophene-2-carboxamide], less than 10 nM.
Take `COCCN1CCN(Cc2cc3ncn(-c4cc(OC(C)c5ccccc5F)c(C(N)=O)s4)c3cn2)CC1` (stereo not drawn) [Example 157, 3-[-1-(2-fluorophenyl)ethoxy]-5-(6-{[4-(2-methoxyethyl)piperazin-1-yl]methyl}-3H-imidazo[4,5-c]pyridin-3-yl)thiophene-2-carboxamide]: the IC50 was 100 to 1000 nM.

Source of the values: patent publication US8273890B2 (4SC AG, priority 2007, dated 2012).
